# Target: Prothrombin (Homo sapiens, UniProt P00734)
# Experiment: Inhibition constant against human thrombin
row,SMILES,Ki [nM]
1,CC1CNc2c(cccc2S(=O)(=O)N[C@@H](CCCNC(N)N)C(=O)N2CC[C@H](C)C[C@@H]2C(=O)O)C1 (stereo in doubt; 1c),280000
2,CC1CNc2c(cccc2S(=O)(=O)N[C@@H](CCCNC(N)N)C(=O)N2CC[C@H](C)C[C@@H]2C(=O)O)C1 (stereo in doubt; 1b),1900
3,CC1CNc2c(cccc2S(=O)(=O)N[C@@H](CCCNC(N)N)C(=O)N2CC[C@H](C)C[C@@H]2C(=O)O)C1 (stereo in doubt; 1g),240

# Stronger by Ki, values ahead:
row,Ki [nM],SMILES
1,19,CC1CNc2c(cccc2S(=O)(=O)N[C@@H](CCCNC(N)N)C(=O)N2CC[C@@H](C)C[C@@H]2C(=O)O)C1 (stereo partly specified)
2,130,CC1CNc2c(cccc2S(=O)(=O)N[C@@H](CCCNC(N)N)C(=O)N2CCCCC2)C1 (stereo partly specified)
3,30,CC1CCN(C(=O)[C@H](CCCNC(N)N)NS(=O)(=O)c2cccc3c2NCC(C)C3)CC1 (stereo partly specified)

# — ChEMBL document CHEMBL1130031, “Binding affinities for sulfonamide inhibitors with human thrombin using Monte Carlo simulations with a linear response method” (J Med Chem, 1997)
